The subject of the assay is breast cancer. Nature of the assay: mouse model for breast cancer, tumor mass and regrowth. As to conditions: for tumor size and regrowth: followed to 180 days; for tumor regrowth / change in tumor mass on estrogen stimulation: stimulated with estrogen at day 115. Format: in vivo. As to the method:
Carbendazim is administered to the mice at 4000, 5000, and 6000 mg/kg of body weight in a separate leg.

Structures are written as SMILES.

For `COC(=O)Nc1nc2ccccc2[nH]1` [Carbendazim, 2-methoxycarbonylamino-benzimidazole], the “tumor regrowth / change in tumor mass on estrogen stimulation” value is on record as “no significant change in tumor mass”. For the same compound, for the setting “carbendazim at 4000, 5000 and 6000 mg/kg given after 130 days to mice that had been treated with cytoxan”, the “tumor size and regrowth” value was “The tumor continued to decrease in size and its regrowth was limited even after 180 days”. For the setting “carbendazim at 4000, 5000 and 6000 mg/kg of body weight”, the “dose dependence of tumor growth” value is on record as “dose dependent”. Also, the “tumor size and regrowth” value (carbendazim at 4000, 5000 and 6000 mg/kg of body weight in a separate leg) is “The tumor continued to decrease in size and its regrowth was limited even after 180 days”.
As to `O=P1(N(CCCl)CCCl)NCCCO1` (stereo not drawn) [cytoxan], the “tumor regrowth / change in tumor mass on estrogen stimulation” value is “rapid regrowth”. For the same compound, the tumor regrowth entry (cytoxan treated control, no carbendazim) is recorded as “tumor regrowth after 100 days”.

These data come from patent publication US20010053773A1, “Method for inhibiting the growth of cancers” (The Procter & Gamble Company, priority 1998, published 2001).
